Read-outs that look alike come from different tables or passages of the source.
Tests used:
[1] = molecular target: T1, human ATGL (Homo sapiens, UniProt Q96AD5); test: TG hydrolase activity, Expi cell lysates expressing human ATGL + CGI-58, radiolabelled triolein; format: biochemical
T1 construct: made in house; host or cells: Expi cells (lysate, not purified)
T1 sequence (Q96AD5 1-504): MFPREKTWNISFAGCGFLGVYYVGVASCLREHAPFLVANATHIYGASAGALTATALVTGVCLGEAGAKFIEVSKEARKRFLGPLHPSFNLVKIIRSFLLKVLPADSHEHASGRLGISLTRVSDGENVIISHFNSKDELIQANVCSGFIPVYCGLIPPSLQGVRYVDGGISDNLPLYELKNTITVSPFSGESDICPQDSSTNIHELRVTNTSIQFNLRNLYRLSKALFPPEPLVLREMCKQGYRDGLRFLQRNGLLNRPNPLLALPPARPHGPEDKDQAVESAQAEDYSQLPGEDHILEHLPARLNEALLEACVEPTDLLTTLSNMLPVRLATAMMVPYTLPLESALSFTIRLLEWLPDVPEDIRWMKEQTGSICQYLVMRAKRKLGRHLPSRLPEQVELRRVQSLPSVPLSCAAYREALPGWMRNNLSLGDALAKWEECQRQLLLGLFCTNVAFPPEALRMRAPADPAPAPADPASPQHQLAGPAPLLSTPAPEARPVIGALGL
Summary of the method: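 Lysates of Expi cells expressing ATGL, supplemented with purified CGI-58 and inhibitor in DMSO, incubated 1 h at 37 °C with emulsified radiolabelled triolein (330 μM) in potassium phosphate pH 7.0 with 5% FA-free BSA. Released FA counted by liquid scintillation after phase extraction; IC50 versus DMSO control, duplicates.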

[2] = molecular target: T2, murine ATGL (Mus musculus, UniProt Q8BJ56); test: TG hydrolase activity, Expi lysates expressing mouse ATGL + CGI-58, radiolabelled triolein; format: biochemical
T2 construct: made in house; host or cells: Expi cells (lysate)
T2 sequence (Q8BJ56 1-486): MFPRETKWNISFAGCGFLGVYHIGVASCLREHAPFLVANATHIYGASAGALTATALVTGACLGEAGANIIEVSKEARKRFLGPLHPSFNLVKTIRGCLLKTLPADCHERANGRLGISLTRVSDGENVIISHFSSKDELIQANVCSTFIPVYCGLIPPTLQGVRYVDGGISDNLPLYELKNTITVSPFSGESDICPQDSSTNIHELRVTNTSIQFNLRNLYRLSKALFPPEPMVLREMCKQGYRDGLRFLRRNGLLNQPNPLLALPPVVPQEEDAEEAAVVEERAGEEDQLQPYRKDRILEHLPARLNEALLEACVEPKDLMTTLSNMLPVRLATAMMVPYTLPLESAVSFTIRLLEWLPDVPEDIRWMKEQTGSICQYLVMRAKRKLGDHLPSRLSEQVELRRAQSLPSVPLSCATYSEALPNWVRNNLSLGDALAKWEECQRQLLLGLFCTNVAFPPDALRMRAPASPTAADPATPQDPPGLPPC
Summary of the method: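 Lysates of Expi cells overexpressing mouse ATGL, with added recombinant CGI-58, were incubated with inhibitor at 50 μM. Substrate was emulsified radiolabelled triolein with PC/PI in 100 mM potassium phosphate pH 7.0 and 5% FA-free BSA, 1 h at 37° C. Released FA were extracted and counted by scintillation; triplicates, DMSO control.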

[3] = test system: differentiated SGBS adipocytes; test: Isoproterenol-stimulated lipolysis in differentiated SGBS adipocytes; format: cell-based; conditions: Homo sapiens, 2 h pretreatment, 1 μM isoproterenol 1 h
Procedure: Human differentiated SGBS adipocytes were pretreated with DMSO or ATGL inhibitors for 2 h. Subsequently, lipolysis was stimulated with 1 μM Isoproterenol for 1 h and fatty acid release was determined from media via NEFA Reagent (Wako Diagnostics). Samples were measured in triplicates.
Human differentiated SGBS adipocytes were pretreated with DMSO or ATGL inhibitors for 2 h. Subsequently, lipolysis was stimulated with 1 μM Isoproterenol for 1 h and glycerol release was determined from media via Free glycerol reagent (Sigma Aldrich). Samples were measured in triplicates.

[4] = molecular target: T3, hPNPLA9 (Homo sapiens, UniProt O60733); test: hPNPLA9 off-target inhibition; format: biochemical; conditions: read-out: hPNPLA9 off-target inhibition [% inhibition at 100 μM]
T3 construct: made in house; host or cells: Expi cells (lysate)
T3 sequence (O60733 1-806): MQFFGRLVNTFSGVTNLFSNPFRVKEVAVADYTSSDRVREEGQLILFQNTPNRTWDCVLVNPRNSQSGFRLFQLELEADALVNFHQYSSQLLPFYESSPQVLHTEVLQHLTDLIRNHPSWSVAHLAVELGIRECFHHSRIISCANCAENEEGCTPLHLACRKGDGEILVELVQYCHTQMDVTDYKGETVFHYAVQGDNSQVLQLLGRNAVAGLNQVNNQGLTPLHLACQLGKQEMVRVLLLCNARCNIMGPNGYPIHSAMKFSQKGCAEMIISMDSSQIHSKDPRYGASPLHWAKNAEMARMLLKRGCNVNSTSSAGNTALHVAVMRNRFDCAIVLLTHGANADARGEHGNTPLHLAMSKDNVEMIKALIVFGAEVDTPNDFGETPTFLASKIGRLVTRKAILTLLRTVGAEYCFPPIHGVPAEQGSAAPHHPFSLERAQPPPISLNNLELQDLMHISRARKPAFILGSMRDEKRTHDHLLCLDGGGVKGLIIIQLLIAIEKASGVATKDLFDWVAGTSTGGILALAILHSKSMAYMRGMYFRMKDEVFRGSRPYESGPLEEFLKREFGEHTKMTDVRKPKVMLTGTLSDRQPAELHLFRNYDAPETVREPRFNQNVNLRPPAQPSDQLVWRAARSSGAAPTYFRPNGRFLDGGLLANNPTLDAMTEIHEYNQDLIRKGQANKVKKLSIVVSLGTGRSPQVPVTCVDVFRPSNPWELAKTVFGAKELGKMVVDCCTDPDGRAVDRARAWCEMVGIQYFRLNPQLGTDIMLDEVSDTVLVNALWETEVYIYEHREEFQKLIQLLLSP
Procedure: Expi lysates expressing hPNPLA9 were treated with 100 μM Inhibitors and incubated with 1 mM C8 monoacylglycerol substrate (containing 5 mM CHAPS, 50 mM NaPh buffer ph7.4, 0.15 M NaCl) for 40 min. Glycerol release was determined via Free glycerol reagent (Sigma Aldrich). Samples measured in triplicates, […]

[5] = molecular target: T1, human ATGL; test: Ki determination, human ATGL lysates with increasing substrate concentrations; format: biochemical; conditions: non-linear regression
Procedure: For determination of Ki values, lysates from Expi cells overexpressing human ATGL were incubated with recombinant purified ATGL co-activator CGI-58 and ATGL inhibitors at a single concentration dependent on the previously determined IC50. Increasing concentrations of substrate containing radiolabeled triolein were added and liberated FA were extracted and quantified by liquid scintillation. Inhibitors were dissolved in DMSO which was used as control. Ki was determined via non-linear regression analysis. Samples were measured in triplicates.

[6] = Stability in human serum; format: in vitro ADME; conditions: 37° C., HPLC MS
Procedure: Inhibitors were incubated in human serum for 0 or 3 h at 37° C. and subsequently extracted with the MTBE method and analyzed via HPLC MS. Samples measured in triplicates.

[7] = Example 237, read-out: Inhibition of human ATGL − IC50
[8] = 50 μM compound, Example 237, read-out: Inhibition of murine ATGL at 50 μM − mean [%]
[9] = fatty acid release, read-out: IC50 SGBS FA release
[10] = glycerol release, read-out: IC50 SGBS glycerol release
[11] = 50 μM, overview table, read-out: mouse ATGL inhibition [% inhibition at 50 μM]
[12] = Example 238, read-out: Inhibition of human ATGL IC50
[13] = 50 μM, Example 238, read-out: % Inhibition of murine ATGL at 50 μM

SMILES: CCOc1ccc(-c2cccc(C(=O)OC(C)C)n2)cc1 [Example 6]
- IC50 [1, 7]: 3 µM
- inhibition at 50 µM [2, 8]: 0%
- IC50 [3, 9]: 2000 nM
- inhibition at 100 µM [4]: 0%

SMILES: CC(C)OC(=O)c1cccc(-c2ccc(OC(F)(F)F)cc2)n1 [Example 37]
- IC50 [1, 7]: 10 µM
- inhibition at 50 µM [2, 8]: 22.8%
- melting point: 43 to 47 °C

SMILES: CC(C)OC(=O)c1cccc(-c2ccc(OCC(F)(F)F)cc2)n1 [Example 38]
- IC50 [1, 7]: 5 µM
- inhibition at 50 µM [2, 8]: 5.7%
- melting point: 70 to 75 °C

SMILES: C#CCOC(=O)c1cccc(-c2ccc(OCC)cc2)n1 [Example 51]
- IC50 [1, 7]: 15 µM
- inhibition at 50 µM [2, 8]: 31.8%
- melting point: 76 to 78 °C

SMILES: CCc1ccc(-c2cccc(C(=O)OC(C)C)n2)cc1 [Example 55]
- IC50 [1, 7]: 3 µM
- inhibition at 50 µM [2, 8]: 1.4%
- melting point: 82 to 84 °C

SMILES: COc1cc(C(=O)OC(C)C)nc(-c2ccc(C(F)(F)F)cc2)c1 [Example 58]
- IC50 [1, 7]: 7 µM
- inhibition at 50 µM [2, 8]: 0%
- melting point: 55 to 56 °C

SMILES: C#CC(C)OC(=O)c1cccc(-c2ccc(CCC)cc2)n1 (centres unmarked) [Example 70]
- IC50 [1, 7]: 3 µM
- inhibition at 50 µM [2, 8]: 0%
- melting point: 90 to 92 °C

SMILES: CC(C)OC(=O)c1cccc(/C=C/c2ccccc2)n1 [Example 76]
- IC50 [1, 7]: 10 µM
- inhibition at 50 µM [2, 8]: 5.1%
- melting point: 66 to 71 °C

SMILES: CCCCCCOc1ccc(-c2cc(OC)cc(C(=O)OC(C)C)n2)cc1 [Example 83]
- IC50 [1, 7]: 2.5 µM
- inhibition at 50 µM [2, 8]: 0.1%
- melting point: 53 to 55 °C

SMILES: CC(C)OC(=O)c1cccc(-c2ccc(-c3nc4ccccc4n3-c3ccccc3)cc2)n1 [Example 84]
- IC50 [1, 7]: 10 µM
- inhibition at 50 µM [2, 8]: 0%
- melting point: 172 to 176 °C

SMILES: CCCCCOc1ccc(-c2cccc(C(=O)OC(C)C)n2)cc1 [Example 85]
- IC50 [1, 7]: 3 µM
- inhibition at 50 µM [2, 8]: 0%
- melting point: 63 to 65 °C

SMILES: CC(C)OC(=O)c1cccc(-c2ccc(Cl)cc2)n1 [Example 87]
- IC50 [1, 7]: 3 µM
- inhibition at 50 µM [2, 8]: 0%
- melting point: 94 to 95 °C

SMILES: CCOC(=O)c1cccc(-c2ccc(C#N)cc2)n1 [Example 88]
- IC50 [1, 7]: 25 µM
- inhibition at 50 µM [2, 8]: 0%
- melting point: 108 to 109 °C

SMILES: CCCCCCOc1ccc(-c2cccc(C(=O)OC)n2)cc1 [Example 89]
- IC50 [1, 7]: 25 µM
- inhibition at 50 µM [2, 8]: 0%
- melting point: 68 to 69 °C

SMILES: CCCCc1ccc(-c2cccc(C(=O)OC(C)C)n2)cc1 [Example 94]
- IC50 [1, 7]: 2 µM
- inhibition at 50 µM [2, 8]: 0%
- melting point: 51 to 55 °C

SMILES: CCCOc1ccc(-c2nc(C(=O)OCC)cs2)cc1 [Example 105, Ethyl 2-(4-propoxyphenyl)thiazole-4-carboxylate]
- IC50 [1, 7]: 3 µM
- inhibition at 50 µM [2, 8]: 12.2%
- IC50 [3, 9]: 3000 nM
- IC50 [3, 10]: 3000 nM

SMILES: C=C(C)COC(=O)c1csc(-c2ccc(OCC)cc2)n1 [Example 120, 2-Methylallyl 2-(4-ethoxyphenyl)thiazole-4-carboxylate]
- IC50 [1, 7]: 4 µM
- inhibition at 50 µM [2, 8]: 40.5%
- inhibition at 50 µM [2, 11]: 40%
- Ki [5]: 1200 nM
- Stability in human serum [% rest after 3 h incubation] [6]: 5%

SMILES: C=CC(C)OC(=O)c1csc(-c2ccc(OCC)cc2)n1 (centres unmarked) [Example 148, But-3-en-2-yl 2-(4-ethoxyphenyl)thiazole-4-carboxylate]
- IC50 [1, 7]: 2 µM
- inhibition at 50 µM [2, 11]: 30%
- IC50 [3, 9]: 2000 nM
- IC50 [3, 10]: 3000 nM

SMILES: CCOC(=O)c1csc(-c2ccc(OCc3ccccc3)cc2)n1 [Example 187, Ethyl 2-(4-(benzyloxy)phenyl)thiazole-4-carboxylate]
- IC50 [1, 7]: 15 µM
- inhibition at 50 µM [2, 8]: 10.2%
- melting point: 112 to 115 °C

SMILES: CCOc1ccc(-c2cccc(C(=O)OCc3ccsc3)n2)cc1 [Example 197, Thiophen-3-ylmethyl 6-(4-ethoxyphenyl)picolinate]
- IC50 [1, 12]: 30 µM
- inhibition at 50 µM [2, 13]: 75%
- melting point: 90 to 93 °C

SMILES: CCOc1ccc(-c2cccc(C(=O)OCc3ccoc3)n2)cc1 [Example 198, Furan-3-ylmethyl 6-(4-ethoxyphenyl)picolinate]
- IC50 [1, 12]: 20 µM
- inhibition at 50 µM [2, 13]: 82%
- melting point: 97 to 101 °C

Reference: patent US20220289698A1, “INHIBITORS OF HUMAN ATGL” (Karl-Franzens-Universität Graz, priority 2019, published 2022)
